For one assay, the system named is BALB/c-mice. Kind of assay: Allergic contact dermatitis model (TDI), mouse ear swelling test. Format: in vivo. The method, then:
The anti-inflammatory and anti-allergic effects of compound 1a were assessed in a mouse model of allergic contact dermatitis, a response driven primarily by T helper type 2 (Th2) cells. […] In this model, an allergic dermatitis response is obtained by sensitizing mice to TDI and subsequently challenging them with antigen by topical administration onto the ears. A quantitative assessment of anti-inflammatory and anti-allergic effects of topically or orally administered test compounds is possible by measuring the resulting ear swelling.
Female BALB/c-mice were obtained from Charles River (Sulzfeld, Germany) at age 8 weeks. All animals were housed in groups of eight per cage at 22° C. with a 12 h light/dark-cycle. Water and a standard diet (Aitromin, Lage/Lippe, Germany) were available ad libitum. All animals were acclimatized for one week before experimental procedures were commenced.
Experimental procedures for BALB/c mice housing, TDI sensitization and challenge, and measurement of ear thickness were performed as previously described (Baurner et al., J Pharm Pharmacol. 55:1107-1114 (2003)) with the following modifications. For active sensitization, 100 μL of 5% (w/v) TDI was administered to the shaved and stripped abdominal epidermis on day one, and for the next three consecutive days, 50 μL of 5% (w/v) TDI was applied. The allergic reaction was boosted 21 days later by application of 50 μL of 0.5% (w/v) TDI. For the examination of test compound effects, the left ears were used for the TDI challenge (20 μL of 0.5% in acetone) and ear thickness measured 3 h before and 24 h after challenge.
Group size was n=7 mice unless otherwise stated. Test compounds were freshly prepared before administration.
Administration time: to determine optimal time for administration treatment groups were treated orally by gavage with 100 mg/kg of compound 1a (suspended in phosphate-buffered saline (PBS), 10 mL/kg) 4 or 16 h before topical TDI challenge. Vehicle treated mice received PBS (10 mL/kg) orally, 4 h before challenge.
Dose-response: two groups of mice were treated orally with compound 1a at 20 mg/kg or 100 mg/kg suspended in PBS, 4 h before topical TDI challenge. Vehicle treated mice received PBS orally 4 h before challenge.
Compound 1a was administered to two groups of mice topically in 20 μl of a 2% or 6% solution in acetone/water (1:1). The solution was applied, 2 h before topical TDI challenge by administration of 10 μl onto each of the inner and outer surfaces of the left ears. A vehicle group (n=7) was treated with acetone/water (1:1).
Mean and standard error of the mean (SEM) were calculated from individual ear edema values. […]

The test system of the next assay is RBL-2H3 cells. Kind of assay: Inhibition of mast cell degranulation (β-hexosaminidase release). Format: cell-based, rat. The following applies: Rattus norvegicus, RBL-2H3 cells sensitized with anti-DNP IgE, triggered with DNP-HSA, 1 h preincubation. The source says:
Mast cells are key effector cells involved in allergic and inflammatory diseases, and the Rat Basophilic Leukemia clone 2H3 (RBL-2H3) cell line is a commonly used model of allergen dependent immune modulator release (degranulation) in mast cells. On their surface, they express the high affinity receptor for IgE (FcεRI). Upon binding of antigen-specific IgE to the receptor, cells become sensitized to the IgE specific antigen (allergen). When IgE-sensitized cells then encounter multivalent antigen, the antigen clusters IgE-FcεRI complexes and initiates a signal transduction cascade that leads to degranulation, that is, the release of inflammatory mediators, such as cytokines, eicosanoids, histamine and enzymes. The assay can be used as a screening method to identify immune-modulating compounds, in particular compounds useful in the medical management of allergic and inflammatory diseases and asthma, β-hexosaminidase was previously shown to be released with the same kinetics as histamine (Schwartz et al., J Immunology; 123:1445-1450 (1979)), thus offering a simple means to monitor degranulation. The RBL-2H3 cell line has been successfully used to identify compounds with anti-allergic activity (Choo et al. Planta Med., 69:518-522 (2003)).
Cell Culture: RBL-2H3 cells obtained from the German Collection of Microorganisms and Cell Cultures (ACC312) (Braunschweig, Germany) were maintained in 70% Minimum Essential Medium with Earle's Salts, 20% RPMI 1640 Medium, 10% FBS and 2 mM l-glutamine in 95% air/5% CO2 at 37° C. and routinely checked for mycoplasma contamination. Cells were passaged every 3-4 days; after washing cells once with 35 ml PBS cells were incubated 8 min with 5 ml 0.05% Trypsin-EDTA solution at 37° C. Cells were removed from the incubator, 15 ml culture medium was added and cells were resuspended by repeated pipetting.
Cell seeding: cells were harvested with Trypsin-EDTA as described and 50-100 μl cell suspension seeded Into Costar CellBind 24 well cluster plates (no. 3337). Plates were kept for 30 min at RT under the sterile hood before being transferred to the incubator. Cells were used within one or two days after seeding.
For sensitization, cells for immediate use were sensitized 6-12 h after plating; cells to be used the following day were sensitized 26-38 h after plating. Culture plates were removed from the incubator and checked for cell growth and contamination. The medium was discarded and cells were sensitized with anti-DNP IgE (0.4 μg/ml) in 0.4 ml culture medium overnight. Following overnight sensitization, cells were washed with 0.8 ml pre-warmed TyB and 0.38 ml test compound or vehicle control (supplemented or not with 1% FBS) were added to duplicate wells. Samples were adjusted to contain 1% vehicle for test compounds dissolved in organic solvents. Cells were incubated for 1 h at 37° C. At the end of the incubation period, cells were routinely stimulated with 20 μl DNP-HSA (2 μg/ml; final concentration 0.1 μg/ml) diluted in TyB and cells were incubated for 15 min at 37° C. Alternatively, cells were stimulated with 20 μl […] (final concentration 0.25 μM) or 20 nM […] (final concentration 0.25 μM), both in the absence or presence of 20 nM PMA (final concentration).
Plates were removed from the incubator and immediately centrifuged at 4° C. for 5 min at 250×g and transferred to an ice bath. Aliquots of supernatants, 25 μl, were transferred to 96-well plates. Remaining supernatant was aspirated from control wells and cells were lysed in […] lysis buffer for 5 min at RT on an orbital shaker at 450 rpm under non-sterile conditions. After lysis, 25 μl aliquots of lysates were transferred to 96-well plates.
MUG substrate solution, 100 μl, were added to supernatant and lysate samples and plates were incubated 30 min at 37° C. The reaction was terminated by addition of 150 μl stop solution. Fluorescence was measured at 365 nm excitation and 440 nm emission wavelengths. […]

Experimental findings from patent US10829506B2, “Amino- or ammonium-containing sulfonic acid, phosphonic acid and carboxylic acid derivatives and their medical use” (GRI Bio, Inc., priority 2011, dated 2020) are described below.

Values joined by “and” are separate entries in the source; they are usually repeats but may differ in a detail not shown here. Equal values may be shown once.

As to `CCCCCCCCCCCCCC[N+](C)(C)CCCS(=O)(=O)[O-]` [Compound 1a, 3-(N,N-Dimethylmyristylammonio)-Propanesulfonate], the “Inhibition of mouse ear swelling (allergic contact dermatitis)” value is 52% and 51.7* % with BALB/c-mice (oral 100 mg/kg, 4 h before TDI challenge); 32.2 in the assay on BALB/c-mice (oral 100 mg/kg, 16 h before TDI challenge); 72% in the assay on BALB/c-mice (topical 2% solution, 2 h before TDI challenge); 86% in the assay on BALB/c-mice (topical 6% solution, 2 h before TDI challenge). In addition, the half-maximal inhibitory concentration (IC50) – broadly, the concentration needed to halve the response being measured – with RBL-2H3 cells turned out to be 3.2 µM.
